This is an account of results in US7732458B2 (priority 2004, dated 2010).

For one series, the system named is HBeAg. The series is classed as cell-based, hepatitis B virus.
A further series has as its system HBsAg. The format is cell-based, hepatitis B virus.
Another series relates to MT4 cells. As to the kind of experiment: Toxicity of compounds on MT4 cells (MTT method). The series is classed as cell-based. To be noted: 6 days. The procedure:
MT4 cells are cultured in 96-well plates (2×10^5 cells/ml, 0.1 ml/well) and the verifying compounds are added and compared against the positive control sample AZT, and the normal cell control group at the same time. Comparisons against DMSO control group and MT4 cell control group are also performed. The culture is maintained at 37° C., 5 percent CO2 for 6 days. The cell activities are tested by the MTT method to determine TC50.
In general terms: Tetrazolium assays rely on reduction of a dye to a coloured formazan, in cell work by metabolically active cells.

The test system of the next series is HIV-1 III B. As to the kind of experiment: Inhibition of HIV-induced MT4 cell pathological effects (CPE). The series is classed as cell-based. Conditions: for IC50: 50 percent effective concentration, CPE in MT4 cells, 72 hours. As to the method:
HIV-1 III B comes from the USA; MT4 cell line comes from Japan.
To determine viral toxicity, HIV are diluted 10 fold in 8 serial [Chinese version is unclear, and this is an educated guess] and MT4 cell pathological effects are then observed in the culture solution of RPMI-1640. Calculated TCID50 is 10-6. The normal cell control group and virus control group are also performed. The samples with five concentrations per group that are diluted by 2 times and 100 μl AZT are added in cell or virus cultures. All concentrations of samples are performed in three repeated wells. The experiments are maintained at 37° C., 5 percent CO2 for 72 hours. Then the cell pathological effects (CPE) are observed under an inverted microscope. IC50 and selective index SI (TC50/IC50) are calculated in Table 7.

The subject of the next series is influenza A1 virus. As to the kind of experiment: Anti-influenza virus experiment in MDCK cells. The series is classed as cell-based. To be noted: for IC50: 72 h, MDCK cells, 3 days.
In the next series the test system is cell Hep G2 2.2.15. As to the kind of experiment: Toxicity to cell Hep G2 2.2.15 (MTT method). The series is classed as cell-based, human.
In series [1] the test system is acute liver injury induced by thioacetamide. Description: Model of acute liver injury induced by thioacetamide in mice. The format is in vivo, Kunming mice. To be noted: thioacetamide 30 mg/kg, X ± SD, n = 20; for ALT / AST: blood 24 hours after final dose. The procedure:
The model of acute liver injury induced by thioacetamide in mice Experimental animals: Kunming mice, male or female, weighing 19-22 g, are used in the study. Animals are housed in an animal room with a natural photoperiod and room temperature (23±2° C.), and maintained with free access to standard rodent pellet food and water ad libitum. […] All mice are randomly divided to 7 groups. […] Then all groups are successively dosed three times at an interval of 3 hours, 6 hours and 9 hours after being infected, and the blood samples were obtained at 24 hours (i.e. the next day) after the final dose. The follow markers and liver weight were measured and also the pathological examination were performed (Table 2).

The test system of series [2] is acute hepatic toxicity induced by carbon tetrachloride. Description: Model of acute hepatic toxicity induced by carbon tetrachloride in rats. The series is classed as in vivo. Conditions: blood 12 hours after final dose, X ± SD, n = 20. The procedure:
2. The Model of Acute Hepatic Toxicity Induced by Carbon Tetrachloride in Rats
Matured SD rats, male or female, weighing 250-350 g are used in the study. Animals are maintained with free access to standard rodent pellet food and water ad libitum.
All rats are randomly divided into 6 groups. All the other groups are treated with 0.5 ml/100 g of 50 percent carbon tetrachloride by hypodermic injection to induce acute hepatic toxicity model, except the control group, and are dosed one time simultaneously. Then all groups will be successively dosed at 4 hours and 8 hours, and the blood samples obtained at 12 hours after the final dose for determining ALT and AST. The animals are killed to measure their liver weight and to perform a pathological examination (Table 3).

Series [3] concerns hepatic toxicity induced by D-galactosamine. Description: Model of hepatic toxicity induced by D-galactosamine in rats. The format is in vivo. Conditions: D-galactosamine 800 mg/kg i.p. (Table 4), X ± SD, n = 20. The procedure:
3. The Model of Hepatic Toxicity Induced by D-Galactosamine in Rats […] Animals are maintained with free access to standard rodent pellet food and water ad libitum. All rats are randomly divided into 4 groups. All groups except the control group are treated simultaneously with 800 mg/kg of 50 percent D-galactosamine by intraperitoneal injection to induce acute hepatic toxicity model. The blood samples are obtained 12 hours after the final dose for determining SGPT and TBIL. The animals are killed to measure their liver weight and to perform a pathological examination (Table 4).

In series [4] the test system is liver fibrosis induced by carbon tetrachloride. As to the kind of experiment: Model of liver fibrosis induced by carbon tetrachloride in rats. Conditions: chronic carbon tetrachloride 12 weeks, treated one time a day for 8 weeks, X ± SD, n = 20. The format is in vivo, Wistar male rats. The procedure: 4. The Model of Liver Fibrosis Induced by Carbon Tetrachloride in Rats
Wistar male rats, weighing 100-150 g are used in the study. Animals are housed in an animal room with a 12 h: 12 h photoperiod and at 22° C. Animals are maintained with free access to standard rodent pellet food and water ad libitum
All Wistar male rats are treated with 0.3 ml/(100 g body weight) of 40 percent carbon tetrachloride (dissolved in peanut oil) by hypodermic injection twice a week for 12 weeks to induce […] hepatic fibrosis model, all in phase IV. Then all rats in hepatic fibrosis are randomly divided into the following groups: normal saline (NS) group, sample group and positive contrast group. The NS group rats are treated with 0.2 ml normal saline by intramuscular injection for 8 weeks, and simultaneously, all the other groups are treated with samples one time a day for 8 weeks. […] After that, all rats are killed, and the right lobes of the livers are fixed in neutral formaldehyde solution for histological examination.

In series [5] the test system is arrhythmia induced by aconitine. Description: Arrhythmia induced by aconitine in rats. The format is in vivo, Wistar rats. To be noted: for preventive effects on arrhythmia induced by aconitine (in words): intravenously injected, aconitine dosage increased, VT/VF postponed. The procedure:
The antagonistic effects of the dehydrocavidine species compounds on arrhythmia induced by aconitine
The samples are dissolved in hot normal saline up to the needed concentration. Normal saline serves as the control solution. Propafenone serves as a positive control sample.
Wistar rats of both sexes are randomly grouped and anesthetized by urethane (1.2 g/kg), II lead electrocardiogram is recorded. The groups are administered the following drugs by vena femoralis injection: (1) the compound (5 mg/kg, if possible 2.5 mg/kg), (2) propafenone (7 mg/kg), (3) control solution (2 mg/kg). After 5 minutes, aconitine solution (5 μg/ml) was delivered intravenously at a constant speed of 0.08 ml/min. The volume of aconitine solution is recorded when VP, VT and VF occur, and the electrocardiogram is also recorded. EV50 (VF) values are calculated by regression analysis on the basis of the dosage of aconitine consumed by VF in each experiment.

A further series concerns central nervous system. Conditions: in vivo; cited from earlier work.
Series [6] deals with smooth muscles of the intestines. To be noted: cited from earlier work.
In the next series the test system is bacteria. To be noted: cited from earlier work.
The conditions of series [7]: normal mice; cited from earlier work.
For series [8] the following is noted: cited from earlier work.
The test system of another series is gram-positive bacterium. To be noted: in vitro; cited from earlier work.

A word on the IC50: it is the midpoint of a concentration-inhibition curve.

Values after ≈ are worked out from the molar mass of the structure shown. Read-outs that look alike come from different tables or passages of the source.

Take `Nc1ccn([C@@H]2CS[C@H](CO)O2)c(=O)n1` [3TC, reference compound]: the “Inhibition frequency to HBeAg (%)” value in the series with HBeAg (concentration 1.0 μmol/ml) was determined as 24.5%. Also, the “Inhibition frequency to HBsAg (%)” value with HBsAg (concentration 1.0 μmol/ml) is recorded as 4.8%.

As to `Cc1cn([C@H]2C[C@H](N=[N+]=[N-])[C@@H](CO)O2)c(=O)[nH]c1=O` [AZT, zidouvding, reference compound], the “TC50” value in the series with MT4 cells is 500 µg/mL (≈ 1870 µM). Further, the half-inhibitory concentration (IC50) in the series with HIV-1 III B stood at 0.1 µg/mL (≈ 0.374 µM).

The molecule `NC(=O)c1ncn([C@@H]2O[C@H](CO)[C@@H](O)[C@H]2O)n1` [Ribavirin, reference compound] had an IC50 with influenza A1 virus of 3.2 µM.

On to `COc1cc2cc[n+]3cc4c5c(ccc4c(C)c3c2cc1O)OCO5` [dehydroapocavidine], for which the Toxicity to cell result with cell Hep G2 2.2.15 (concentration 0.1 μmol/ml), in the series with cell Hep G2 2.2.15 (concentration 0.2 μmol/ml) and with cell Hep G2 2.2.15 (concentration 0.4 μmol/ml) was “− (“no obvious toxicity” means cell livability ≧75% using MTT method)” each time. Also, the figures for the “Inhibition frequency to HBeAg (%)” value with HBeAg (concentration 0.1 μmol/ml), in the series on HBeAg (concentration 0.2 μmol/ml) and with HBeAg (concentration 0.4 μmol/ml) were 26.5%, 33.5% and 62.1%, respectively. Further, the “Inhibition frequency to HBsAg (%)” value in the series with HBsAg (concentration 0.1 μmol/ml) was found to be 15.7%; with HBsAg (concentration 0.2 μmol/ml), 21.3%; with HBsAg (concentration 0.4 μmol/ml), 28.6%. For the same molecule, the “Liver index (g liver wt./100 g body wt.)” value is reported as 5.14 ± 0.48 g liver wt./100 g body wt in [1] and 4.47 ± 0.47 g liver wt./100 g body wt in series [3]. Further, the ALT in [1] is on record as 823.26 ± 178.42; in [2], 955.36 ± 327.18; in series [3] it was 1027.10 ± 277.38; in [4] it was 973.2 ± 273.5. Further, the AST was determined as 241.13 ± 62.81 in series [1], 903.52 ± 256.94 in series [2], 345.20 ± 68.29 in series [3] and 1057.1 ± 338.7 in [4]. Besides, the “Hydroxy-prodine in Liver” value in [4] is on record as 0.175 ± 0.018. Further, the “TC50” value in the series on MT4 cells was 250 µg/mL. Moreover, the “inhibitory effects on HIV viruses (in words)” value in the series with HIV-1 III B is given as “certain inhibitory effects on HIV viruses”. Further, the concentration for half-maximal inhibition (IC50) with HIV-1 III B was 6.25 µg/mL. For the same molecule, the “inhibitory effects on influenza viruses (in words)” value in the series on influenza A1 virus is listed as “markedly inhibitory effects on influenza viruses”. In addition, the “preventive effects on arrhythmia induced by aconitine (in words)” value in [5] is on record as “certain preventive effects on arrhythmia induced by aconitine”. For the same molecule, the “ED50 (10^−6 mol/Kg)” value in [5] (rats, vena femoralis injection, regression on aconitine dosage consumed by VF) is reported as 4.26 10^−6 mol/Kg.

Regarding `COc1cc2c(cc1OC)-c1c(C)c3ccc4c(c3c[n+]1CC2)OCO4` [dehydrocavidine], the Toxicity to cell entry in the series on cell Hep G2 2.2.15 (concentration 0.1 μmol/ml), with cell Hep G2 2.2.15 (concentration 0.2 μmol/ml) and in the series with cell Hep G2 2.2.15 (concentration 0.4 μmol/ml) was “− (“no obvious toxicity” means cell livability ≧75% using MTT method)” in each case. The entries for the “Inhibition frequency to HBeAg (%)” value with HBeAg (concentration 0.1 μmol/ml), in the series on HBeAg (concentration 0.2 μmol/ml) and in the series on HBeAg (concentration 0.4 μmol/ml) were 20.5%, 21.6% and 57.2%, respectively. The “Inhibition frequency to HBsAg (%)” value is reported as 28.4% in the series with HBsAg (concentration 0.1 μmol/ml), 31.4% in the series with HBsAg (concentration 0.2 μmol/ml) and 34.6% with HBsAg (concentration 0.4 μmol/ml). In addition, the “Liver index (g liver wt./100 g body wt.)” value in series [1] was 5.36 ± 0.54 g liver wt./100 g body wt; in series [3], 5.10 ± 0.36 g liver wt./100 g body wt. The ALT in [1] stood at 873.50 ± 251.82; in [2], 774.30 ± 217.11; in [3], 846.28 ± 172.54; in [4], 1113.4 ± 247.6. In addition, the AST came out at 237.10 ± 73.27 in series [1], 1116.54 ± 348.27 in series [2], 241.20 ± 65.53 in [3] and 987.3 ± 237.9 in series [4]. Moreover, the “Hydroxy-prodine in Liver” value in [4] turned out to be 0.162 ± 0.013. Besides, the “TC50” value in the series with MT4 cells was >1000 µg/mL. Moreover, the “inhibitory effects on HIV viruses (in words)” value with HIV-1 III B is “certain inhibitory effects on HIV viruses”. In addition, the half-maximal inhibitory concentration (IC50) with HIV-1 III B (Human immunodeficiency virus 1, read-out: IC50) was 12.5 µg/mL; in the series with influenza A1 virus, 7.4 µM. Besides, the “inhibitory effects on influenza viruses (in words)” value in the series on influenza A1 virus is reported as “markedly inhibitory effects on influenza viruses”. Moreover, the ED50 in [5] (Rattus norvegicus, read-out: ED50 (10^−6 mol/Kg)) came to 7.33 µmol/kg. Also, the “preventive effects on arrhythmia induced by aconitine (in words)” value in series [5] is reported as “certain preventive effects on arrhythmia induced by aconitine”. Also, the “effects on the central nervous system” value with central nervous system is “sedative effects on the central nervous system”. The “effects on the smooth muscles of the intestines” value in series [6] was “antispasm effects on the smooth muscles of the intestines”. For the same molecule, in the series on bacteria, the “antibacterial effect in vitro” value is listed as “antibacterial effect in vitro”. In addition, the “effects on blood sugar levels” value in series [7] is on record as “no effects on the blood sugar levels in normal mice”. Also, in series [8], the “production of glycogen in vivo” value is recorded as “effect on increasing the production of glycogen in vivo”. For the same molecule, in the series on gram-positive bacterium, the “inhibitory effect on gram-positive bacterium” value is recorded as “certain inhibitory effect on gram-positive bacterium”.
